The text below walks through data of patent US20250387438A1, “USE OF […] SP. OR COMPOSITION COMPRISING SAME IN PREVENTION OR TREATMENT OF TUMORS, AND DRUG COMPRISING SAME” (Moon (Guangzhou) Biotech Co., Ltd., priority 2022, published 2025).

Series [1] deals with Christensenella sp. MNH04863. In words: Antibiotic susceptibility testing by disk diffusion method. It is filed as cell-based. The conditions noted are these: for Inhibition Zone Diameter: against Christensenella sp. MNH04863. From the text:
The disk diffusion method was used to conduct the antibiotic susceptibility testing of Christensenella sp. MNH04863. Christensenella sp.
Background: A growth-free zone around the sample is the usual read-out of agar diffusion tests.

For series [2], the system named is KPC mouse pancreatic cancer cells. In words: Pancreatic cancer mouse homologous tumor model, combination with gemcitabine.
Series [3] shares this test system. The conditions noted are these: in vivo.

Consider `CC1(C)S[C@@H]2[C@H](NC(=O)[C@H](N)c3ccccc3)C(=O)N2[C@H]1C(=O)O` [Ampicillin (AMP), Ampicillin], for which, in series [1], the “Susceptibility of Christensenella sp. MNH04863 to the antibiotic” value (“Susceptibility” below) is listed as “resistance” and the “Inhibition Zone Diameter” value is listed as 0 mm.

Take `CO/N=C(\C(=O)N[C@@H]1C(=O)N2C(C(=O)O)=C(CSc3nc(=O)c(=O)[nH]n3C)CS[C@H]12)c1csc(N)n1` [Ceftriaxone (CTR), Ceftriaxone]: in series [1], the “Susceptibility” value was “sensitive” and the “Inhibition Zone Diameter” value was 37.32 mm.

For `O=C(N[C@H](CO)[C@H](O)c1ccc([N+](=O)[O-])cc1)C(Cl)Cl` [Chloramphenicol (C), Chloramphenicol], in series [1], the “Susceptibility” value is given as “sensitive” and the “Inhibition Zone Diameter” value turned out to be 38.88 mm.

In the case of `O=C(O)c1cn(C2CC2)c2cc(N3CCNCC3)c(F)cc2c1=O` [Ciprofloxacin (CIP), Ciprofloxacin], in series [1], the “Susceptibility” value is “resistance” and the “Inhibition Zone Diameter” value is 0 mm.

For the compound `CC[C@H]1OC(=O)[C@H](C)[C@@H](O[C@H]2C[C@@](C)(OC)[C@@H](O)[C@H](C)O2)[C@H](C)[C@@H](O[C@@H]2O[C@H](C)C[C@H](N(C)C)[C@H]2O)[C@](C)(O)C[C@@H](C)C(=O)[C@H](C)[C@@H](O)[C@]1(C)O` [Erythromycin (E), Erythromycin], in series [1], the “Susceptibility” value is “sensitive” and the “Inhibition Zone Diameter” value came out at 16.82 mm.

`Nc1ccn([C@@H]2O[C@H](CO)[C@@H](O)C2(F)F)c(=O)n1` [Gemcitabine]: in series [2] (experimental endpoint), the “Average Dissected Tumor Weight” value came out at 0.68 g. Besides, in series [2] (vs control), the “Experimental Endpoint TGI” value was 40.0%. Moreover, the “Number of Euthanized mice” value in series [3] (C57BL/6J) was 2. Also, the “Average Weight Before Dissection” value in series [3] is 21.13 g.

As to `CCC[C@@H]1C[C@@H](C(=O)N[C@@H]([C@H]2O[C@H](SC)[C@H](O)[C@@H](O)[C@H]2O)[C@@H](C)O)N(C)C1` [Lincomycin (MY), Lincomycin], in series [1], the “Susceptibility” value is listed as “sensitive” and the “Inhibition Zone Diameter” value is recorded as 29.86 mm.

Consider `CN(C)[C@@H]1C(O)=C(C(N)=O)C(=O)[C@@]2(O)C(O)=C3C(=O)c4c(O)cccc4[C@@](C)(O)[C@H]3C[C@@H]12` [Tetracycline (TET), Tetracycline], for which, in series [1], the “Inhibition Zone Diameter” value is 46.11 mm.

In the case of “Compound Sulfamethoxazole [Compound Sulfamethoxazole (SXT)]”, in series [1], the “Susceptibility” value is given as “resistance” and the “Inhibition Zone Diameter” value is recorded as 0 mm.

Turning to Gentamycin [Gentamycin (GEN)], in series [1], the “Susceptibility” value is “resistance” and the “Inhibition Zone Diameter” value was 0 mm.

Turning to Penicillin [Penicillin (PEN)], in series [1], the “Susceptibility” value is reported as “sensitive” and the “Inhibition Zone Diameter” value is listed as 43.06 mm.
